Measured values published in PMC7281403, “Regulation of Tumor Immunity by Lysophosphatidic Acid” (Cancers, 2020).
Read-outs that look alike come from different tables or passages of the source.

What was measured:
ATX [1] = biological target: ATX (Homo sapiens, UniProt Q13822); assay: ATX activity, fluorescent FS-3 substrate assay; type: biochemical; conditions: IC50 ± SD
LPAR5 [2] = biological target: T1, LPAR5 (Homo sapiens, UniProt Q9H1C0); assay: β-arrestin recruitment in LPAR5 expressing CHO-K1 cells; type: cell-based; set-up: expressed in transfected cells; conditions: LPA-induced β-arrestin recruitment, IC50 ± SD, NE = No effect, listed as TC-LPA5-4
Excerpt: (§1) As an example, inhibition of LPAR5 in distinct cell types, such as CD8^+ T cells could help boost its immunosurveillance activity against cancer and impede metastasis. There is currently no FDA-approved LPA receptor antagonist for cancer therapy. […] We obtained both TC-LPA5-4 and UA-02-085 and tested for LPAR5 antagonism in two independent assays: Ca^2+ mobilization and β-Arrestin recruitment. […] AGP is present in several tissues and biological fluids including tumor ascites, atherosclerotic plaques, aqueous humor of the eye, and in platelet rich plasma. Thus, alkyl-LPA might have multiple actions in the TME as well as the cancer cells. […] We included as a positive control, Amgen35, a compound originally discovered by AMGEN investigators to be a LPAR2 antagonist with an IC50 of 0.8 µM [136]. The AMGEN publication predated the discovery of the LPAR4-6. […] Amgen35 has also been reported to have off-target effects in vivo [136]. […] The other putative LPAR5 antagonist compound, AS2727638, reported by Astellas Pharma in Japan, has only been characterized at LPAR1-3 but not at the other LPAR with high homology of LPAR5 [121].

LPAR5 [3] = biological target: T1, LPAR5; assay: Ca2+ mobilization in LPAR5 expressing B103 cells; type: cell-based; set-up: expressed in transfected cells; host or cells: B103 cells
Excerpt: as §1

CD8+ T cells = test system: CD8+ T cells; set-up: method as in PMID 31231367; conditions: cited from earlier work
ATX [4] = test system: ATX; set-up: method as in PMID 34788605; conditions: TILs from melanoma patients and peripheral CD8+ T cells; cited from earlier work
[5] = set-up: method as in PMID 15172836; conditions: cited from earlier work
lymphocyte = test system: lymphocyte; set-up: method as in PMID 11024010, PMID 11160288; conditions: bell shape dose-response curve dropping off above 1 µM; cited from earlier work
LPAR2 [6] = biological target: T2, LPAR2 (Homo sapiens, UniProt Q9HBW0); set-up: method as in PMID 9525886; conditions: Jurkat T cells, LPAR2 plus SRE-driven luciferase reporter; cited from earlier work
LPAR1 [7] = test system: LPAR1; set-up: method as in PMID 9525886; conditions: Jurkat T cells, LPAR1 plus SRE-driven luciferase reporter; cited from earlier work
Jurkat cell line = test system: Jurkat cell line; set-up: method as in PMID 7775587; conditions: cotreatment with PMA compared to PMA alone; cited from earlier work
LPAR2 [8] = biological target: T2, LPAR2; set-up: method as in PMID 11160288; conditions: LPA 10^−9–10^−6 M, anti-LPAR2 MAb 30–300 ng/mL; cited from earlier work
LPAR1 [9] = test system: LPAR1; set-up: method as in PMID 11160288; conditions: cited from earlier work

T1 sequence (Q9H1C0 whole entry, species assumed): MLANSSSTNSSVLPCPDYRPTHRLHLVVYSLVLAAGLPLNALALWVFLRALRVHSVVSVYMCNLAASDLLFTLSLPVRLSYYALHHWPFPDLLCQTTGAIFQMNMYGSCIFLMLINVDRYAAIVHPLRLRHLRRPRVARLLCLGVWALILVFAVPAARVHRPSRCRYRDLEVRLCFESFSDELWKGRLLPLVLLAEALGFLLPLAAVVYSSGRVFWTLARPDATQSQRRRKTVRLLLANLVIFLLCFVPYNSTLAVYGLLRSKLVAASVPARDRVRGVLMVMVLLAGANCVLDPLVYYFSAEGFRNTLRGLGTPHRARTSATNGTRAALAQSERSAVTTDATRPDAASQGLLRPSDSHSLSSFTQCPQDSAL
T2 sequence (Q9HBW0 whole entry, species assumed): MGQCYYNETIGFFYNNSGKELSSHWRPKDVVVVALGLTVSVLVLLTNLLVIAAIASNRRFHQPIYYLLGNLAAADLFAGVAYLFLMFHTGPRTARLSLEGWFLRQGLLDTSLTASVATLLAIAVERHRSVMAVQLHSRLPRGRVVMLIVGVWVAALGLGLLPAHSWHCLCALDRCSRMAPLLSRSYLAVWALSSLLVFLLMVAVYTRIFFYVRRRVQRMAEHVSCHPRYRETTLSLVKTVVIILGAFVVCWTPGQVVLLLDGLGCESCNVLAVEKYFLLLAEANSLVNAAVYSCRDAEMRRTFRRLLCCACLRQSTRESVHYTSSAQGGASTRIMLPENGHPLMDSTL

Molecule: COc1cccc(-n2nc(C(=O)O)cc2-c2ccc(C3CCCCC3)c(Cl)c2)c1 [TC-LPA-5]
- IC50 (ATX [1]): 7.1 ± 0.6 µM
- LPAR5 IC50 (β-arrestin) (LPAR5 [2]): inactive
- LPAR5 IC50 (Ca^2+ Mobilization) (LPAR5 [3]; LPA-induced Ca2+ mobilization, LPAR5 expressing B103 cells, IC50 ± SD, NE = No effect, listed as TC-LPA5-4): inactive
- Inhibition of AGP-induced Ca^2+ mobilization (LPAR5 [3]; agonist alkyl glycerophosphate (AGP), unpublished): failed to inhibit

Molecule: CCCCCCCCCCCCCCCCCCOP(O)(O)=S [OTP, octadecyl thiophosphate]
- in vitro tumor cell killing function (CD8+ T cells; mouse and human CD8+ T cells): decreased in vitro tumor cell killing function
- granule exocytosis (CD8+ T cells; stimulation of CD8+ T cells): impaired granule exocytosis

Molecule: O=C(CCN1CCN(C(=O)OCc2cc(Cl)cc(Cl)c2)CC1)c1ccc2[nH]c(=O)oc2c1 [PF-8380]
- effect of conditioned media from ATX-expressing tumor cells on T cell migration in presence of ATX inhibitor (ATX [4]): failed to inhibit the migration of T cells

Molecule: lysophosphatidic acid [LPA]
- critical micellar concentration ([5]; acyl group myristoyl): 1.850 mM
- critical micellar concentration ([5]; acyl group oleoyl): 0.346 mM
- critical micellar concentration ([5]; acyl group palmitoyl): 0.540 mM
- critical micellar concentration ([5]; acyl group stearoyl): 0.082 mM
- concentration of maximal efficiency in modulating lymphocyte responses (lymphocyte): 10^−10 to 10^−8 M
- LPA-dependent luciferase expression (LPAR2 [6]): 20 fold over control
- LPA-dependent luciferase expression (LPAR1 [7]): 5 fold over control
- increase in IL-2 secretion (Jurkat cell line): five-fold
- transmigration of LPAR2 Jurkat transfectants (LPAR2 [8]): stimulated the transmigration
- migratory response in LPAR1 Jurkat transfectants (LPAR1 [9]): neither LPA nor the anti-LPAR1 MAb induced a migratory response

Molecule: C[C@H](NC(=O)CCc1nc2cccnc2n1Cc1ccc(OC(F)(F)F)cc1)c1ccc(Cl)cc1 [IOA-289]
- effect of conditioned media from ATX-expressing tumor cells on T cell migration in presence of ATX inhibitor (ATX [4]): failed to inhibit the migration of T cells
